Reference: patent US20110262451A1, “MODULATORS OF ISOVALERYL-COENZYME A DEHYDROGENASE IN THE TREATMENT OF ACNE, OF SEBORRHOEIC DERMATITIS OR OF HYPERSEBORRHOEA” (priority 2008, published 2011)

Legend:
[1] = test system: IVD; test: qRT-PCR expression of IVD in rat sebaceous gland (epidermal split) after topical PPARgamma agonist; type: in vivo; conditions: topical 1% in acetone, T = 96 h, female FUZZY rat, relative induction versus carrier group, standardized to 18S
Procedure: (§1) • Strain: Ico: Hsd: FUZZY-fz • Gender: female • Age: 10 weeks Number per batch: 40 (8 animals per group) Treatment: Route of administration: topical • Compound/batch: PPARgamma agonist (rosiglitazone) • Doses: 1% • Carrier: acetone (001) • Duration 96 hours Method of evaluation: The animals are weighed at the beginning and at the end of the study. Skin biopsies are taken (6 samples of skin excised per rat) in order to analyze the expression of the genes (RNA extraction, reverse transcriptas and real-time PCR). The samples are stored overnight at 4° C. before incubation in 1M sodium bromide (NaBr) for 2 hours at 37° C. After incubation, the samples are separated into epidermis or dermis. The epidermal samples are stored at […] Under these conditions, the sebaceous glands are in the epidermal split. PCRs are carried out, beginning with the cDNAs originating from the epidermal splits containing sebaceous glands from control rats or rats treated with the PPARγ agonist: the mRNA is extracted using a column and quantified. The quality of the mRNAs is measured and is represented by the 18S/28S ratio. The results are standardized with respect to 18S expressed as relative induction versus untreated animals (carrier group). The statistical analysis is obtained using internal software based on a modified Monte Carlo statistical analysis.

[2] = test system: PPARγ; test: qRT-PCR expression of PPARγ in rat sebaceous gland (epidermal split) after topical PPARgamma agonist; type: in vivo; conditions: topical 1% in acetone, T = 96 h, female FUZZY rat, relative induction versus carrier group, standardized to 18S
Procedure: as §1

[3] = test system: isovaleryl-coenzyme A dehydrogenase; conditions: cited from earlier work

In the case of `COCCOCOc1ccc2cc(C(=O)N(C)Cc3cccc(-c4ccc(CC5SC(=O)NC5=O)cc4)c3)ccc2c1` (stereo not drawn) [PPARgamma agonist, 6-(2-methoxyethoxy-methoxy)naphthalene-2-carboxylic acid [4′-(2,4-dioxothiazolidin-5-ylmethyl)biphenyl-3-ylmethyl]methyl-amide], the “Induction factor (IVD)” value [1] is reported as 0.11 and the “Induction factor (PPARγ)” value [2] is reported as 0.11.
For `C=C1C[C@@H]1C[C@H](N)C(=O)O` [hypoglycine A], the “Inhibition of isovaleryl-coenzyme A dehydrogenase” value [3] is listed as “inhibitor”.
